“Also recorded” adds a separate entry of the source.
Key:
SN12C = assay: NCI cancer screening program, SRB: SN12C; assay type: cell-based; conditions: Renal Cancer, PG +50, 48 hours
UO-31 = assay: NCI cancer screening program, SRB: UO-31; assay type: cell-based; conditions: Renal Cancer, PG +50, 48 hours
PC-3 = assay: NCI cancer screening program, SRB: PC-3; assay type: cell-based; conditions: Prostate Cancer, PG +50, 48 hours
DU-145 = assay: NCI cancer screening program, SRB: DU-145; assay type: cell-based; conditions: Prostate Cancer, PG +50, 48 hours
MCF7 = assay: NCI cancer screening program, SRB: MCF7; assay type: cell-based; conditions: Breast Cancer, PG +50, 48 hours
MCF7/ADR-RES = assay: NCI cancer screening program, SRB: MCF7/ADR-RES; assay type: cell-based; conditions: Breast Cancer
HS578T = assay: NCI cancer screening program, SRB: HS578T; assay type: cell-based; conditions: Breast Cancer, PG +50, 48 hours
MDA-MB-435 = assay: NCI cancer screening program, SRB: MDA-MB-435; assay type: cell-based; conditions: Breast Cancer
MDA-N = assay: NCI cancer screening program, SRB: MDA-N; assay type: cell-based; conditions: Breast Cancer, PG +50, 48 hours
BT-549 = assay: NCI cancer screening program, SRB: BT-549; assay type: cell-based; conditions: Breast Cancer, PG +50, 48 hours
T-47D = assay: NCI cancer screening program, SRB: T-47D; assay type: cell-based; conditions: Breast Cancer, PG +50, 48 hours
[1] = test system: KB nasopharyngeal carcinoma cell line; assay: In vitro cytotoxicity, methylene blue assay / cell count: KB; assay type: cell-based; conditions: three generations, mean ± standard deviation of five experiments, read-out: ID50 (the source's name)
[2] = test system: DU-145 prostate carcinoma line; assay: In vitro cytotoxicity, methylene blue assay / cell count: DU-145; assay type: cell-based; conditions: Homo sapiens, read-out: ID50 (the source's name)
[3] = test system: PC-3 prostate carcinoma line; assay: In vitro cytotoxicity, methylene blue assay / cell count: PC-3; assay type: cell-based; conditions: three generations, mean ± standard deviation of five experiments, read-out: ID50 (the source's name)
CEM cells = assay: In vitro cytotoxicity, methylene blue assay / cell count: CEM; assay type: cell-based; conditions: Homo sapiens, CCRF-CEM, three generations, mean ± standard deviation of five experiments, read-out: ID50 (the source's name)
tumor cell lines tested = assay: In vitro cytotoxicity, statement on all tumor cell lines tested; assay type: cell-based; conditions: all of the tumor cell lines tested
HepG2 tumors = assay: HepG2 xenograft in NCr nude mice; assay type: in vivo, human; conditions: for Effect on HepG2 tumors in words: 25 mg/kg twice a day on days 0 through 4, NCr nude mice; for Net cell kill (log 10): HepG2 tumors, 25 mg/kg twice a day days 0 through 4
Procedure: (§1) FIG. 5 is a graph of the inhibition of human tumor growth by […]. Three to six week old NCr nude mice were inoculated subcutaneously in each flank with 2×10^6 HepG2 or DU-145 cells. Treatment was started when the tumors were in an advanced stage of growth. Drugs were administered twice a day on days 0 through 4 and tumor sizes were measured on the indicated days. […] Each data point represents the means±SD of 10 tumors in graph A and six tumors in graph B.
(§2) Three to six-week-old NCr nude mice (Taconic Immunodeficient Mice and Rats) were inoculated s.c. in each flank with 2×10^6HepG2 or DU-145 cells and tumors were allowed to grow. Treatment was started when the tumors were 100-250mg as determined by caliper measurement and calculated according to the formula:
(§3) Tumor Weight(mg)=length(mm)×width(mm^2)÷2
(§4) Drugs were given at the indicated doses on days 0 through 4 and tumor sizes were measured every several days. The tumor growth curves were generated as described in Bell, et al., Cancer(phila.) 36:2437-2440 (1975), and are illustrated in FIGS. 5(a) and 5(b).

DU-145 tumors = assay: DU-145 xenograft in NCr nude mice; assay type: in vivo, human
Procedure: as §1, §2, §3, §4

NCr nude mice = assay type: in vivo
Procedure: as §4
Toxicity was evaluated by changes in body weight.

[4] = target: human deoxycytidine kinase (Homo sapiens, UniProt P27707); assay: In vitro enzymatic studies of phosphorylation; assay type: biochemical
[5] = Phosphorylation to nucleotides in vivo
BKVX = conditions: Non-Small Cell Lung Cancer, PG +50, 48 hours
Excerpt: (§5) GI50, TGI and LC50 are values representing the concentrations at which the PG (percent of growth inhibition), defined below, is +50, 0, and −50, respectively.
(§6) If (Mean ODtest−Mean ODtzero)≧0. then PG=100×(Mean ODtest−Mean ODtzero)/(Mean ODctrl−Mean ODtzero)
(§7) If (Mean ODtest−Mean ODtzero)<0. then PG=100×(Mean ODtest−Mean ODtzero)/(Mean ODtzero)
(§8) Mean ODtzero=The average of optical density measurements of SRB-derived color just before exposure of cells to the test compound.
(§9) Mean ODtestThe average of optical density measurements of SRB-derived color after 48 hours exposure of cells to the test compound.
(§10) Mean ODctrl=The average of optical density measurements of SRB-derived color after 48 hours with no exposure of cells to the test compound.
(§11) If these response parameters could not be obtained by interpolation, the value given for each response parameter is the highest concentration tested and is preceded by a “>” sign.

K2112 = conditions: Colon Cancer
Excerpt: as §5, §6, §7, §8, §9, §10, §11

SP-268 = conditions: CNS Cancer, PG +50, 48 hours
Excerpt: as §5, §6, §7, §8, §9, §10, §11

SP-295 = conditions: CNS Cancer, PG +50, 48 hours
Excerpt: as §5, §6, §7, §8, §9, §10, §11

785-4 = conditions: Renal Cancer, PG +50, 48 hours
Excerpt: as §5, §6, §7, §8, §9, §10, §11

TK-30 = conditions: Renal Cancer
Excerpt: as §5, §6, §7, §8, §9, §10, §11

MDA-MB-231/ATCC = conditions: Breast Cancer, PG +50, 48 hours
Excerpt: as §5, §6, §7, §8, §9, §10, §11

cytidine deaminase = cytidine deaminase (Homo sapiens, UniProt P32320); assay: Enzymatic studies of deamination
A549/ATCC = assay: NCI cancer screening program, SRB: A549/ATCC; conditions: Non-Small Cell Lung Cancer, PG +50, 48 hours
Excerpt: as §5, §6, §7, §8, §9, §10, §11

Sequence of cytidine deaminase (P32320 whole entry, species assumed): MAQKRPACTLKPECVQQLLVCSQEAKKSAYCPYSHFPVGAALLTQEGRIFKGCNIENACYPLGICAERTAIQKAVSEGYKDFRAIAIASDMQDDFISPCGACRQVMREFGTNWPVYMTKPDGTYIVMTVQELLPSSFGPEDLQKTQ
Sequence of human deoxycytidine kinase (P27707 whole entry): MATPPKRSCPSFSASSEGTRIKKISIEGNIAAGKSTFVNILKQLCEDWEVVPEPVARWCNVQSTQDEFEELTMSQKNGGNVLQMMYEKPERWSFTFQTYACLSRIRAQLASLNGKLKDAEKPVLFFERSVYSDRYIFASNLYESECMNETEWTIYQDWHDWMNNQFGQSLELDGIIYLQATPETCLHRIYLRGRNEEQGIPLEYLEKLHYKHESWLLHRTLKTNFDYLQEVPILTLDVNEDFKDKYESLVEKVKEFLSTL

Compound: Nc1ccn([C@@H]2CO[C@H](CO)O2)c(=O)n1 [(−)-OddC, (−)-(2S,4S)-1-(2-hydroxymethyl-1,3-dioxolan-4-yl)cytosine]
- LOG10GI50 (SN12C): −6.27
- LOG10GI50 (UO-31): −5.60
- LOG10GI50 (PC-3): −6.29
- LOG10GI50 (DU-145): −6.97
- LOG10GI50 (MCF7): −5.95
- LOG10TGI (MCF7/ADR-RES; PG 0, 48 hours): >−4.00
- LOG10GI50 (MCF7/ADR-RES; PG +50, 48 hours): −4.97
- LOG10GI50 (HS578T): >−4.00
- LOG10TGI (MDA-MB-435; PG 0, 48 hours): >−4.00
- LOG10GI50 (MDA-MB-435; PG +50, 48 hours): −4.62
- LOG10GI50 (MDA-N): −4.33
- LOG10GI50 (BT-549): −4.59
- LOG10GI50 (T-47D): >−4.00
- IC50 [1]: 48 ± 21 nM
- IC50 [2]: 24 ± 20 nM
- IC50 [3]: 56 ± 39 nM
- IC50 (CEM cells): 25 ± 30 nM
- Cytotoxicity in words (tumor cell lines tested): more cytotoxic than AraC
- Effect on HepG2 tumors in words (HepG2 tumors): active
- Effect on HepG2 tumors in words (HepG2 tumors; listed as (L)-OddC): effective
- Net cell kill (log 10) (HepG2 tumors; i.p. treatment): 0.67
- Net cell kill (log 10) (HepG2 tumors; oral treatment): 0.87
- Effect on DU-145 tumors in words (DU-145 tumors; 25 mg/kg twice a day on days 0 through 4, NCr nude mice): effective
- DU-145 tumors regressing completely (DU-145 tumors; by day 15): half of them regressing completely
- Toxicity as indicated by weight loss of the animals (NCr nude mice; doses given, 25 mg/kg twice a day days 0 through 4): equally toxic
- Maximum tolerated dosage (NCr nude mice; twice a day for five continuous days of treatment, preliminary toxicity experiments): 25 mg/kg
- Phosphorylation by human deoxycytidine kinase [4]: can be phosphorylated
- Phosphorylation in vivo [5]: can be phosphorylated to mono-, di- and tri-phosphate nucleotide
- Log10GI50 (BKVX): >−4.00
- Log10TGI (K2112; PG 0, 48 hours): >−4.00
- Log10GI50 (K2112; PG +50, 48 hours): >−4.00
- Log10GI50 (SP-268): −5.18
- Log10GI50 (SP-295): −6.24
- LOG10GI50 (785-4): −5.36
- LOG10TGI (TK-30; PG 0, 48 hours): >−4.00
- LOG10GI50 (TK-30; PG +50, 48 hours): >−4.00
- LOG10GI50 (MDA-MB-231/ATCC): >−4.00
- Substrate for deaminase / deamination by cytidine deaminase (cytidine deaminase): not a substrate; also recorded: not deaminated
- Log10GI50 (A549/ATCC): −6.01

Reference: patent US6436948B1, “Method for the treatment of psoriasis and genital warts” (priority 1995, dated 2002)
